According to patent publication US12692238B2, “Substituted pyridazinone herbicides” (FMC CORPORATION, priority 2020, dated 2026):

How the values were obtained:
Type in all cases: in vivo
kochia (Bassia scoparia) = test: Test A preemergence, kochia; conditions: Bassia scoparia, pre-emergence, 240 h, 0 to 100 scale, 10 days, read-out: Plant response rating, Kochia; for pest or weed control at 31 g/ha: 31 g ai/ha; for pest or weed control at 125 g/ha: 125 g ai/ha
In short: (§1)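 Scores reflect visual injury versus untreated controls after 10 days in a greenhouse, on a scale from 0 (none) to 100 (complete control); pre- and postemergence sprays used loam/sand pots, postemergence at the one- to two-leaf stage.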

[1] = system: foxtail, giant (giant foxtail, Setaria faberi); test: Test A preemergence, foxtail, giant; conditions: Setaria faberi, pre-emergence, 240 h, 0 to 100 scale, 10 days, read-out: Plant response rating, Foxtail, Giant; for pest or weed control at 31 g/ha: 31 g ai/ha; for pest or weed control at 125 g/ha: 125 g ai/ha
In short: as §1

[2] = system: foxtail, giant (giant foxtail, Setaria faberi); test: Test A postemergence, foxtail, giant; conditions: Setaria faberi, post-emergence, 240 h, 10 days, read-out: Plant response rating, Foxtail, Giant; for pest or weed control at 31 g/ha: 31 g ai/ha; for pest or weed control at 125 g/ha: 125 g ai/ha
In short: as §1

[3] = system: redroot pigweed (Amaranthus retroflexus); test: Test A preemergence, redroot pigweed; conditions: 0 to 100 scale, 10 days
In short: as §1

[4] = system: goosegrass (Eleusine indica); test: Test A preemergence, goosegrass; conditions: 0 to 100 scale, 10 days
Text: (§2) Seeds of plant species selected from barnyardgrass (Echinochloa crus-galli), blackgrass (Alopecurus myosuroides), corn (Zea mays), foxtail, giant (giant foxtail, Setaria faberi), foxtail, green (green foxtail, Setaria viridis), goosegrass (Eleusine indica), kochia (Bassia scoparia), oat, wild (wild oat, Avena fatua), palmer amaranth (pigweed, palmer, Amaranthus palmeri), redroot pigweed (Amaranthus retroflexus), ragweed (common ragweed, Ambrosia artemisiifolia), ryegrass, Italian (Italian ryegrass, Lolium multiflorum), and soybean (Glycine max) were planted into a blend of loam soil and sand and treated preemergence with a directed soil spray using test chemicals formulated in a non-phytotoxic solvent mixture which included a surfactant.
(§3) At the same time, plants selected from these crop and weed species and also wheat (Triticum aestivum), galium (catchweed bedstraw, Galium aparine) and horseweed (Erigeron canadensis) were planted in pots containing the same blend of loam soil and sand and treated with postemergence applications of test chemicals formulated in the same manner. Plants ranged in height from 2 to 10 cm and were in the one- to two-leaf stage for the postemergence treatment. Treated plants and untreated controls were maintained in a greenhouse for 10 days, after which time all treated plants were compared to untreated controls and visually evaluated for injury. Plant response ratings, summarized in Table A, are based on a 0 to 100 scale where 0 is no effect and 100 is complete control. A dash (-) response means no test result.

[5] = system: goosegrass (Eleusine indica); test: Test A postemergence, goosegrass; conditions: 10 days
Text: as §2, §3

corn (Zea mays) = test: Test A preemergence, corn; conditions: 0 to 100 scale, 10 days
Text: as §2, §3

[6] = system: oat, wild (wild oat, Avena fatua); test: Test A postemergence, oat, wild; conditions: 10 days
Text: as §2, §3

[7] = system: blackgrass (Alopecurus myosuroides); test: Test A preemergence, blackgrass; conditions: 0 to 100 scale, 10 days
Text: as §2, §3

[8] = system: palmer amaranth (pigweed, palmer, Amaranthus palmeri); test: Test A preemergence, palmer amaranth; conditions: 0 to 100 scale, 10 days
Text: as §2, §3

soybean (Glycine max) [9] = test: Test A postemergence, soybean; conditions: 10 days
Text: as §2, §3

[10] = system: horseweed (Erigeron canadensis); test: Test A postemergence, horseweed; conditions: 10 days
Text: as §2, §3

[11] = system: oat, wild (wild oat, Avena fatua); test: Test A preemergence, oat, wild; conditions: 0 to 100 scale, 10 days
Text: as §2, §3

[12] = system: palmer amaranth (pigweed, palmer, Amaranthus palmeri); test: Test A postemergence, palmer amaranth; conditions: 10 days
Text: as §2, §3

soybean (Glycine max) [13] = test: Test A preemergence, soybean; conditions: 0 to 100 scale, 10 days
Text: as §2, §3

[14] = system: wheat (Triticum aestivum); test: Test A preemergence, wheat; conditions: 125 g ai/ha, 0 to 100 scale, 10 days
[15] = system: foxtail, green (green foxtail, Setaria viridis); test: Test A preemergence, foxtail, green; conditions: 0 to 100 scale, 10 days
Text: as §2, §3

[16] = system: foxtail, green (green foxtail, Setaria viridis); test: Test A postemergence, foxtail, green; conditions: 10 days
Text: as §2, §3

[17] = 31 g ai/ha, postemergence, 0 to 100 scale (0 no effect, 100 complete control)
[18] = Postemergence, 125 g ai/ha, 0 to 100 scale

| Compound | pest or weed control at 31 g/ha (kochia (Bassia scoparia)) [%] | pest or weed control at 125 g/ha (kochia (Bassia scoparia)) [%] | pest or weed control at 31 g/ha [1] [%] | pest or weed control at 125 g/ha [1] [%] | pest or weed control at 31 g/ha ([2]; Postemergence, 0 to 100 scale) [%] | pest or weed control at 125 g/ha ([2]; Postemergence, 0 to 100 scale) [%] | Plant response rating, Pigweed, Redroot ([3]; 31 g ai/ha) | Plant response rating, Pigweed, Redroot ([3]; 125 g ai/ha) | Plant response rating, Goosegrass ([4]; 31 g ai/ha) | Plant response rating, Goosegrass ([4]; 125 g ai/ha) | Plant response rating, Goosegrass [5, 17] | Plant response rating, Goosegrass [5, 18] | Plant response rating, Corn (corn (Zea mays); 31 g ai/ha) | Plant response rating, Corn (corn (Zea mays); 125 g ai/ha) | Plant response rating, Oat, Wild [6, 17] | Plant response rating, Oat, Wild [6, 18] | Plant response rating, Blackgrass ([7]; 31 g ai/ha) | Plant response rating, Blackgrass ([7]; 125 g ai/ha) | Plant response rating, Pigweed, Palmer ([8]; 31 g ai/ha) | Plant response rating, Pigweed, Palmer ([8]; 125 g ai/ha) | other results |
| --- | --- | --- | --- | --- | --- | --- | --- | --- | --- | --- | --- | --- | --- | --- | --- | --- | --- | --- | --- | --- | --- |
| CC(=O)OCOc1c(Cl)nn(C)c(=O)c1-c1c(C)ccc2ccc(C)cc12 [Compound 3, 5-[(Acetyloxy)methoxy]-6-chloro-4-(2,7-dimethyl-1-naphthalenyl)-2-methyl-3(2H)-pyridazinone] | 10 | 90 | 10 | 100 | 80 | 90 | 100 | 100 | – | – | – | – | – | – | – | – | – | – | – | – | – |
| CC(=O)OCOc1c(C)nn(C)c(=O)c1-c1c2cc(C)ccc2cc2ccc(F)cc12 [Compound 24, 5-[(acetyloxy)methoxy]-4-(2-fluoro-7-methyl-9-anthracenyl)-2,6-dimethyl-3(2H)-pyridazinone] | 70 | 90 | 90 | 100 | – | 90 | 100 | 100 | – | – | – | – | – | – | – | – | – | – | – | – | pest or weed control at 31 g/ha ([2]; postemergence, 0 to 100 scale (0 no effect, 100 complete control)): 90% |
| Cc1ccc2cc3ccc(C)cc3c(-c3c(OCOC(=O)C(C)(C)C)c(Cl)nn(C)c3=O)c2c1 [Compound 9, [[3-chloro-5-(2,7-dimethyl-9-anthracenyl)-1,6-dihydro-1-methyl-6-oxo-4-pyridazinyl]oxy]methyl 2,2-dimethylpropanoate] | 50 | 100 | 0 | 50 | 20 | 40 | – | – | 10 | 10 | 30 | 30 | 0 | 0 | 0 | 0 | 0 | 0 | 40 | 100 | Plant response rating, Soybean (soybean (Glycine max) [9]; [17]): 40; Plant response rating, Soybean (soybean (Glycine max) [9]; [18]): 60; Plant response rating, Horseweed [10, 17]: 100; Plant response rating, Horseweed [10, 18]: 100; Plant response rating, Oat, Wild ([11]; 31 g ai/ha): 0; Plant response rating, Oat, Wild ([11]; 125 g ai/ha): 0; Plant response rating, Pigweed, Palmer [12, 17]: 80; Plant response rating, Pigweed, Palmer [12, 18]: 80; Plant response rating, Soybean (soybean (Glycine max) [13]; 31 g ai/ha): 0; Plant response rating, Soybean (soybean (Glycine max) [13]; 125 g ai/ha): 0; Plant response rating, Wheat [14]: 0 |
| COC(=O)OCOc1c(Cl)nn(C)c(=O)c1-c1c2cc(C)ccc2cc2ccc(C)cc12 [Compound 8, [[3-chloro-5-(2,7-dimethyl-9-anthracenyl)-1,6-dihydro-1-methyl-6-oxo-4-pyridazinyl]oxy]methyl methyl carbonate] | 60 | 100 | 30 | 70 | 10 | 70 | – | – | 0 | 0 | 0 | 0 | 0 | 60 | 0 | 10 | 0 | 0 | 100 | 100 | Plant response rating, Soybean (soybean (Glycine max) [9]; [17]): 40; Plant response rating, Soybean (soybean (Glycine max) [9]; [18]): 60; Plant response rating, Horseweed [10, 17]: 100; Plant response rating, Horseweed [10, 18]: 100; Plant response rating, Oat, Wild ([11]; 31 g ai/ha): 0; Plant response rating, Oat, Wild ([11]; 125 g ai/ha): 0; Plant response rating, Pigweed, Palmer [12, 17]: 70; Plant response rating, Pigweed, Palmer [12, 18]: 100; Plant response rating, Soybean (soybean (Glycine max) [13]; 31 g ai/ha): 0; Plant response rating, Soybean (soybean (Glycine max) [13]; 125 g ai/ha): 0; Plant response rating, Wheat [14]: 0 |
| CC(=O)OCOc1c(Cl)nn(C)c(=O)c1-c1c(C)ccc2ccccc12 [Compound 5, 5-[(acetyloxy)methoxy]-6-chloro-2-methyl-4-(2-methyl-1-naphthalenyl)-3(2H)-pyridazinone] | 40 | 70 | – | – | – | – | 100 | 100 | – | – | – | – | – | – | – | – | – | – | – | – | Plant response rating, Foxtail, Green ([15]; 31 g ai/ha): 50; Plant response rating, Foxtail, Green ([15]; 125 g ai/ha): 90; Plant response rating, Foxtail, Green [16, 17]: 40; Plant response rating, Foxtail, Green [16, 18]: 80 |
